Key:
[1] = promethazine hydrochloride preparation mixed with plasma in vitro, relative amount of precipitate formed; assay type: physicochemical; conditions: laboratory studies, ratio not stated
From the text: Without being bound by any particular theory, it is believed that this precipitate formation could be related to the venous thrombosis found at the injection site, as well as the cause of other local adverse reactions involving promethazine injection. […] With a composition according to one or more of the embodiments set forth herein, it is expected that a promethazine solution given by the routes of i.v. and i.m. (intramuscular) injection would have fewer incidences of irritation and other adverse reactions at the site of injection.

[2] = after intramuscular injection; cited from earlier work
[3] = cited from earlier work

precipitate formation when solution is mixed with plasma [1]: precipitates form immediately
Structure (SMILES): CC(CN1c2ccccc2Sc2ccccc21)N(C)C.Cl (racemic) [promethazine hydrochloride, 10H-Phenothiazine-10-ethanamine, N,N, α-trimethyl-, monohydrochloride, (±)]
plasma creatine kinase levels (indication of muscle irritation) [2]: raise plasma creatine kinase levels
adverse reactions at the local area of injection ([3]; clinical case reports): irritation and other serious adverse reactions at the local area of injection, particularly gangrene at the extremity of the injection site
venous thrombosis at the injection site ([3]; in vivo, iv): some incidents of venous thrombosis at the injection site

From patent US20030032639A1, “Composition and method for reducing adverse interactions between phenothiazine derivatives and plasma using surfactants and amino acids” (Wyeth, priority 2001, published 2003)
